The text below walks through data of US20110136666A1, “CHEMICAL COMPOUNDS” (SYNGENTA CROP PROTECTION, INC., priority 2008, published 2011).

The test system of one assay is Solanum nigrum (SOLNI). The assay can be described thus: Post-emergence biological efficacy, glasshouse pot test. The following applies: 312 h, 250 g/ha, after 13 days, 100=total damage, 0=no damage, read-out: Percentage damage caused to weed species SOLNI. It is filed as in vivo. Here is the method: (§1) Seeds of Alopecurus myosuroides (ALOMY), Setaria faberi (SETFA), Echinochloa crus-galli (ECHCG), Solanum nigrum (SOLNI), Amaranthus retroflexus (AMARE) and Ipomea hederaceae (IPOHE) were sown in standard soil in pots. After cultivation for 8 days under controlled conditions in a glasshouse (at 24/16° C., day/night; 14 hours light; 65% humidity), the plants were sprayed with an aqueous spray solution derived from the formulation of the technical active ingredient in acetone/water (50:50) solution containing 0.5% Tween 20 (polyoxyethylene sorbitan monolaurate, CAS RN 9005-64-5) to give a final dose of 250 or 1000 g/ha of test compound.
(§2) The test plants were then grown on under controlled conditions in a glasshouse (at 24/16° C., day/night; 14 hours light; 65% humidity) and watered twice daily. After 13 days the test was evaluated (100=total damage to plant; 0=no damage to plant).
In the case of `COC(=O)c1nc(-c2cscc2C)nc(N)c1Cl` [Compound 2-17, 4-Amino-5-chloro-6-methoxycarbonyl-2-(4-methylthiophen-3-yl)-pyrimidine], the pest or weed control at 250 g/ha turned out to be 0%.

Still in this assay, the particulars now being: 312 h, 1000 g/ha, after 13 days, 100=total damage, 0=no damage, read-out: Percentage damage caused to weed species SOLNI.
On to `Nc1nc(-c2ccc(Cl)s2)nc(C(=O)O)c1Cl` [Compound 1-2, 4-amino-5-chloro-2-(5-chlorothiophen-2-yl)-pyrimidine-6-carboxylic acid], for which the pest or weed control at 1000 g/ha was 80%.

For another assay, the system named is Ipomea hederaceae (IPOHE). The assay is described as above. As to conditions: Ipomoea hederacea, 312 h, 250 g/ha, after 13 days, 100=total damage, 0=no damage, read-out: Percentage damage caused to weed species IPONE. The assay is classed as in vivo. Here is the method:
as §1, §2
For the molecule `COC(=O)c1nc(-c2cscc2C)nc(N)c1Cl` [Compound 2-17, 4-Amino-5-chloro-6-methoxycarbonyl-2-(4-methylthiophen-3-yl)-pyrimidine], the pest or weed control at 250 g/ha was determined as 0%.

The assay is the same for the next values; noted with them: Ipomoea hederacea, 312 h, 1000 g/ha, after 13 days, 100=total damage, 0=no damage, read-out: Percentage damage caused to weed species IPONE.
`Nc1nc(-c2ccc(Cl)s2)nc(C(=O)O)c1Cl` [Compound 1-2, 4-amino-5-chloro-2-(5-chlorothiophen-2-yl)-pyrimidine-6-carboxylic acid]: the pest or weed control at 1000 g/ha stood at 60%.

In a further assay the test system is Amaranthus retroflexus (AMARE). The description is as above. It is filed as in vivo. The following applies: 312 h, 250 g/ha, after 13 days, 100=total damage, 0=no damage, read-out: Percentage damage caused to weed species AMARE. Here is the method: as §1, §2
As to `COC(=O)c1nc(-c2cscc2C)nc(N)c1Cl` [Compound 2-17, 4-Amino-5-chloro-6-methoxycarbonyl-2-(4-methylthiophen-3-yl)-pyrimidine], the pest or weed control at 250 g/ha is 0%.

Still in this assay, the particulars now being: 312 h, 1000 g/ha, after 13 days, 100=total damage, 0=no damage, read-out: Percentage damage caused to weed species AMARE.
Regarding `Nc1nc(-c2ccc(Cl)s2)nc(C(=O)O)c1Cl` [Compound 1-2, 4-amino-5-chloro-2-(5-chlorothiophen-2-yl)-pyrimidine-6-carboxylic acid], the pest or weed control at 1000 g/ha came out at 100%.

The subject of another assay is Echinochloa crus-galli (ECHCG). Described as above. The following applies: 312 h, 250 g/ha, after 13 days, 100=total damage, 0=no damage, read-out: Percentage damage caused to weed species ECHCG. It is filed as in vivo. Here is the method:
as §1, §2
For the molecule `COC(=O)c1nc(-c2cscc2C)nc(N)c1Cl` [Compound 2-17, 4-Amino-5-chloro-6-methoxycarbonyl-2-(4-methylthiophen-3-yl)-pyrimidine], the pest or weed control at 250 g/ha was found to be 0%.

The same assay, now with this note: 312 h, 1000 g/ha, after 13 days, 100=total damage, 0=no damage, read-out: Percentage damage caused to weed species ECHCG.
Take `Nc1nc(-c2ccc(Cl)s2)nc(C(=O)O)c1Cl` [Compound 1-2, 4-amino-5-chloro-2-(5-chlorothiophen-2-yl)-pyrimidine-6-carboxylic acid]: the pest or weed control at 1000 g/ha was determined as 20%.

In another assay the test system is Setaria faberi (SETFA). The assay is described as above. The assay is classed as in vivo. The following applies: 312 h, 250 g/ha, after 13 days, 100=total damage, 0=no damage, read-out: Percentage damage caused to weed species SETFA. Here is the method: as §1, §2
As for `COC(=O)c1nc(-c2cscc2C)nc(N)c1Cl` [Compound 2-17, 4-Amino-5-chloro-6-methoxycarbonyl-2-(4-methylthiophen-3-yl)-pyrimidine], the pest or weed control at 250 g/ha was determined as 0%.

Still in this assay, the particulars now being: 312 h, 1000 g/ha, after 13 days, 100=total damage, 0=no damage, read-out: Percentage damage caused to weed species SETFA.
Consider `Nc1nc(-c2ccc(Cl)s2)nc(C(=O)O)c1Cl` [Compound 1-2, 4-amino-5-chloro-2-(5-chlorothiophen-2-yl)-pyrimidine-6-carboxylic acid], for which the pest or weed control at 1000 g/ha turned out to be 50%.

The next assay deals with Alopecurus myosuroides (ALOMY). The assay is described as above. It is filed as in vivo. As to conditions: 312 h, 250 g/ha, after 13 days, 100=total damage, 0=no damage, read-out: Percentage damage caused to weed species ALOMY. Here is the method: as §1, §2
Turning to `COC(=O)c1nc(-c2cscc2C)nc(N)c1Cl` [Compound 2-17, 4-Amino-5-chloro-6-methoxycarbonyl-2-(4-methylthiophen-3-yl)-pyrimidine], the pest or weed control at 250 g/ha came out at 0%.

The same assay, now with this note: 312 h, 1000 g/ha, after 13 days, 100=total damage, 0=no damage, read-out: Percentage damage caused to weed species ALOMY.
Turning to `Nc1nc(-c2ccc(Cl)s2)nc(C(=O)O)c1Cl` [Compound 1-2, 4-amino-5-chloro-2-(5-chlorothiophen-2-yl)-pyrimidine-6-carboxylic acid], the pest or weed control at 1000 g/ha turned out to be 10%.

In another assay the test system is Solanum nigrum (SOLNI). As to the kind of experiment: Pre-emergence biological efficacy, glasshouse pot test. The assay is classed as in vivo. The following applies: 312 h, 250 g/ha, after 13 days, 100=total damage, 0=no damage, read-out: Percentage damage caused to weed species SOLNI. Here is the method: as §1, with “one day” for “8 days”
(§3) The test plants were then grown under controlled conditions in the glasshouse (at 24/16° C., day/night; 14 hours light; 65% humidity) and watered twice daily. After 13 days the test was evaluated (100=total damage to plant; 0=no damage to plant).
Take `COC(=O)c1nc(-c2cscc2C)nc(N)c1Cl` [Compound 2-17, 4-Amino-5-chloro-6-methoxycarbonyl-2-(4-methylthiophen-3-yl)-pyrimidine]: the pest or weed control at 250 g/ha came to 0%.

Staying with this assay, now noted: 312 h, 1000 g/ha, after 13 days, 100=total damage, 0=no damage, read-out: Percentage damage caused to weed species SOLNI.
Take `Nc1nc(-c2ccc(Cl)s2)nc(C(=O)O)c1Cl` [Compound 1-2, 4-amino-5-chloro-2-(5-chlorothiophen-2-yl)-pyrimidine-6-carboxylic acid]: the pest or weed control at 1000 g/ha was determined as 30%.

A further assay relates to Ipomea hederaceae (IPOHE). The assay is described as above. It is filed as in vivo. The following applies: Ipomoea hederacea, 312 h, 250 g/ha, after 13 days, 100=total damage, 0=no damage, read-out: Percentage damage caused to weed species IPOHE. Here is the method:
as §1, with “one day” for “8 days”
as §3
Turning to `COC(=O)c1nc(-c2cscc2C)nc(N)c1Cl` [Compound 2-17, 4-Amino-5-chloro-6-methoxycarbonyl-2-(4-methylthiophen-3-yl)-pyrimidine], the pest or weed control at 250 g/ha stood at 0%.

The same assay, now with this note: Ipomoea hederacea, 312 h, 1000 g/ha, after 13 days, 100=total damage, 0=no damage, read-out: Percentage damage caused to weed species IPOHE.
Turning to `Nc1nc(-c2ccc(Cl)s2)nc(C(=O)O)c1Cl` [Compound 1-2, 4-amino-5-chloro-2-(5-chlorothiophen-2-yl)-pyrimidine-6-carboxylic acid], the pest or weed control at 1000 g/ha turned out to be 0%.

A further assay relates to Amaranthus retroflexus (AMARE). The assay is described as above. The assay is classed as in vivo. The following applies: 312 h, 250 g/ha, after 13 days, 100=total damage, 0=no damage, read-out: Percentage damage caused to weed species AMARE. Here is the method:
as §1, with “one day” for “8 days”
as §3
For the molecule `COC(=O)c1nc(-c2cscc2C)nc(N)c1Cl` [Compound 2-17, 4-Amino-5-chloro-6-methoxycarbonyl-2-(4-methylthiophen-3-yl)-pyrimidine], the pest or weed control at 250 g/ha was 50%.

Staying with this assay, now noted: 312 h, 1000 g/ha, after 13 days, 100=total damage, 0=no damage, read-out: Percentage damage caused to weed species AMARE.
On to `Nc1nc(-c2ccc(Cl)s2)nc(C(=O)O)c1Cl` [Compound 1-2, 4-amino-5-chloro-2-(5-chlorothiophen-2-yl)-pyrimidine-6-carboxylic acid], for which the pest or weed control at 1000 g/ha worked out at 100%.

The next assay deals with Echinochloa crus-galli (ECHCG). The description is as above. The assay is classed as in vivo. The following applies: 312 h, 250 g/ha, after 13 days, 100=total damage, 0=no damage, read-out: Percentage damage caused to weed species ECHCG. Here is the method:
as §1, with “one day” for “8 days”
as §3
`COC(=O)c1nc(-c2cscc2C)nc(N)c1Cl` [Compound 2-17, 4-Amino-5-chloro-6-methoxycarbonyl-2-(4-methylthiophen-3-yl)-pyrimidine]: the pest or weed control at 250 g/ha turned out to be 0%.

The same assay, now with this note: 312 h, 1000 g/ha, after 13 days, 100=total damage, 0=no damage, read-out: Percentage damage caused to weed species ECHCG.
For the molecule `Nc1nc(-c2ccc(Cl)s2)nc(C(=O)O)c1Cl` [Compound 1-2, 4-amino-5-chloro-2-(5-chlorothiophen-2-yl)-pyrimidine-6-carboxylic acid], the pest or weed control at 1000 g/ha was 0%.

In another assay the test system is Setaria faberi (SETFA). Described as above. The assay is classed as in vivo. The following applies: 312 h, 250 g/ha, after 13 days, 100=total damage, 0=no damage, read-out: Percentage damage caused to weed species SETFA. Here is the method: as §1, with “one day” for “8 days”
as §3
For the molecule `COC(=O)c1nc(-c2cscc2C)nc(N)c1Cl` [Compound 2-17, 4-Amino-5-chloro-6-methoxycarbonyl-2-(4-methylthiophen-3-yl)-pyrimidine], the pest or weed control at 250 g/ha turned out to be 0%.

Still in this assay, the particulars now being: 312 h, 1000 g/ha, after 13 days, 100=total damage, 0=no damage, read-out: Percentage damage caused to weed species SETFA.
As for `Nc1nc(-c2ccc(Cl)s2)nc(C(=O)O)c1Cl` [Compound 1-2, 4-amino-5-chloro-2-(5-chlorothiophen-2-yl)-pyrimidine-6-carboxylic acid], the pest or weed control at 1000 g/ha turned out to be 0%.

The next assay relates to Alopecurus myosuroides (ALOMY). Described as above. The assay is classed as in vivo. As to conditions: 312 h, 250 g/ha, after 13 days, 100=total damage, 0=no damage, read-out: Percentage damage caused to weed species ALOMY. Here is the method:
as §1, with “one day” for “8 days”
as §3
For the molecule `COC(=O)c1nc(-c2cscc2C)nc(N)c1Cl` [Compound 2-17, 4-Amino-5-chloro-6-methoxycarbonyl-2-(4-methylthiophen-3-yl)-pyrimidine], the pest or weed control at 250 g/ha turned out to be 0%.

Staying with this assay, now noted: 312 h, 1000 g/ha, after 13 days, 100=total damage, 0=no damage, read-out: Percentage damage caused to weed species ALOMY.
For the molecule `Nc1nc(-c2ccc(Cl)s2)nc(C(=O)O)c1Cl` [Compound 1-2, 4-amino-5-chloro-2-(5-chlorothiophen-2-yl)-pyrimidine-6-carboxylic acid], the pest or weed control at 1000 g/ha turned out to be 0%.
